# Measurements published in patent publication US20230047208A1, “RNA Splicing Modulation” (The General Hospital Corporation, priority 2020, published 2023).
# System: wildtype (WT) human fibroblast cell lines
# Test: Transcriptome-wide splicing by RNA sequencing (RNASeq), exon triplet PSI change
# Assay type: cell-based
# Set-up: key to Effect: Exclusion; Inclusion; Unchanged
# Source text: FIG. 2A provides a representation of an exon triplet. Exon U is upstream of Exon X, which is upstream of Exon D. R1, R2 and R3 represent RNA sequencing (RNASeq) reads spanning the regions between two adjacent exons. UI1, I1X, XI2 and I2D are four regions flanking the four splice sites of the exon-triplet. Each flanking region consists of 25 exonic base pairs and 75 intronic base pairs.
# FIG. 2B provides a volcano plot showing the ψ (PSI: Percent Spliced-In) changes in splicing after treatment with Compound (I). Each dot represents one of the 161,097 expressed exon triplets in human fibroblasts. The x axis represents the ψ changes after treatment and the y axis represents the False Discovery Rate (FDR) (log 10 transformed). […] The horizontal dashed line indicates an FDR of 0.1. The dots on the right side of the right vertical dashed line and above the horizontal dashed line represent the exon-triplets with an increase for Exon X inclusion (Δψ≥0.1 and FDR<0.1) while the dots on left side of the left vertical dashed line and above the horizontal dashed line represent an increase for Exon X exclusion (Δψ≤−0.1 and FDR<0.1). Black dots in-between the two vertical dashed lines represent exon-triplets unchanged from the treatment.
# In some aspects, analysis is performed on data derived from the assay to measure the magnitude of splicing to determine the amount of exons spliced into an mRNA transcript that is produced in the presence of Compound (I) relative to the amount in the absence of Compound (I) or presence of a negative control. In a preferred aspect, the method utilized is calculation of change in Percent Spliced In (ΔPSI). […] The ΔPSI value is derived from the formula: […]
# The values for “a” and “b” represent the number of reads supporting the probability for potential inclusion or exclusion of an exon in an RNA transcript. The “a” value is derived from the number of reads within an exon triplet covering, in 5′ to 3′ order: the last few bases (>1 nucleotide) of an upstream exon operably linked to the first few bases (>1 nucleotide) of a middle exon. The “b” value is derived from the number of reads within an exon triplet covering, in 5′ to 3′ order: the last few bases (>1 nucleotide) of the middle exon operably linked to the first few bases (>1 nucleotide) of a downstream exon. The number of reads will indicate whether the splice junction of a middle exon has been identified as potentially having a CNN Motif(s) by the CNN Model described herein, wherein the inclusion or exclusion of the middle exon may be modulated in the presence of Compound (I) to produce one or more mature RNA isoforms from the gene transcript. The value for “c” represents the number of reads supporting the exclusion of the middle exon.
# The effect on splicing modulation and corresponding splice differences toward exon inclusion or exclusion was determined by counting the RNASeq reads covering two splice junctions of exon triplets (three consecutive exons: Exon U, Exon X, Exon D) and the corresponding intervening introns, then comparing the change in Percent Spliced In (ΔPSI or Δψ) of the middle exon (Exon X) after treatment (as shown in FIG. 2A)^52,53. 934 exon triplets were identified showing differential middle exon inclusion or exclusion in response to Compound (I) treatment. Of these, 254 were exon inclusion events (Δψ≥0.1 and FDR<0.1) and 680 were exon exclusion events (Δψ≤−0.1 and FDR<0.1) (as shown in FIG. 2B). […] The splicing results were evaluated by RT-PCR in independent replicate experiments, confirming all the calculated Δψ values. […]
smiles,measurement,setting,value
"Clc1nc(NCc2ccncc2)c2cc[nH]c2n1 [Compound (I), 2-chloro-N-(pyridin-4-ylmethyl)-7H-pyrrolo[2,3-d]pyrimidin-4-amine]","splicing changes, share of all expressed triplets","934 out of 161,097 expressed triplets",0.58%
same,Effect,"Exc/Inc/Unc of the middle exon of the exon triplet, six WT human fibroblast cell lines treated for seven days vs DMSO, gene LENG8",Exc
same,Effect,"Exc/Inc/Unc of the middle exon of the exon triplet, six WT human fibroblast cell lines treated for seven days vs DMSO, gene LGALS8",Inc
same,Effect,"Exc/Inc/Unc of the middle exon of the exon triplet, six WT human fibroblast cell lines treated for seven days vs DMSO, gene LRP12",Unc
same,Effect,MYO1B Exon 192265475-192265561,Inc
same,T-PSI,MYO1B Exon 192265475-192265561,0.296
same,ΔPSI,MYO1B Exon 192265475-192265561,0.128
same,Effect,MYO1B Exon 192267358-192267444,Inc
same,T-PSI,MYO1B Exon 192267358-192267444,0.483
same,ΔPSI,MYO1B Exon 192267358-192267444,0.190
same,Effect,MYO5A Exon 52630007-52630081,Exc
same,T-PSI,MYO5A Exon 52630007-52630081,0.063
same,ΔPSI,MYO5A Exon 52630007-52630081,−0.118
same,Effect,MYO5A Exon 52635314-52635394,Unc
same,T-PSI,MYO5A Exon 52635314-52635394,0.617
same,ΔPSI,MYO5A Exon 52635314-52635394,0.007
same,Effect,MYO5A Exon 52641015-52641023,Inc
same,T-PSI,MYO5A Exon 52641015-52641023,0.953
same,ΔPSI,MYO5A Exon 52641015-52641023,0.130
same,Effect,MYO18A Exon 27464034-27464102,Unc
same,T-PSI,MYO18A Exon 27464034-27464102,0.330
same,ΔPSI,MYO18A Exon 27464034-27464102,0.005
same,Effect,MYO19 Exon 34870956-34871025,Exc
same,T-PSI,MYO19 Exon 34870956-34871025,0.870
same,ΔPSI,MYO19 Exon 34870956-34871025,−0.109
same,Effect,N6AMT2 Exon 21311862-21311944,Unc
same,T-PSI,N6AMT2 Exon 21311862-21311944,0.755
same,ΔPSI,N6AMT2 Exon 21311862-21311944,0.010
same,Effect,NABP1 Exon 192547218-192547321,Inc
same,T-PSI,NABP1 Exon 192547218-192547321,0.729
same,ΔPSI,NABP1 Exon 192547218-192547321,0.198
same,Effect,NADK2 Exon 36208727-36208792,Exc
same,T-PSI,NADK2 Exon 36208727-36208792,0.005
same,ΔPSI,NADK2 Exon 36208727-36208792,−0.102
same,Effect,NAE1 Exon 66860571-66860683,Exc
same,T-PSI,NAE1 Exon 66860571-66860683,0.596
same,ΔPSI,NAE1 Exon 66860571-66860683,−0.315
same,Effect,NAE1 Exon 66860580-66860683,Exc
same,T-PSI,NAE1 Exon 66860580-66860683,0.859
same,ΔPSI,NAE1 Exon 66860580-66860683,−0.115
same,Effect,NBN Exon 90994181-90994230,Exc
same,T-PSI,NBN Exon 90994181-90994230,0.017
same,ΔPSI,NBN Exon 90994181-90994230,−0.156
same,Effect,NCK2 Exon 106497784-106498505,Unc
same,T-PSI,NCK2 Exon 106497784-106498505,0.586
same,ΔPSI,NCK2 Exon 106497784-106498505,−0.008
same,Effect,NCOR2 Exon 124811955-124812179,Unc
same,T-PSI,NCOR2 Exon 124811955-124812179,0.657
same,ΔPSI,NCOR2 Exon 124811955-124812179,0.000
same,Effect,NCOR2 Exon 124812093-124812179,Unc
same,T-PSI,NCOR2 Exon 124812093-124812179,0.681
same,ΔPSI,NCOR2 Exon 124812093-124812179,−0.001
same,Effect,NEDD1 Exon 97301382-97301634,Unc
same,T-PSI,NEDD1 Exon 97301382-97301634,0.826
same,ΔPSI,NEDD1 Exon 97301382-97301634,−0.003
same,Effect,NEDD1 Exon 97301480-97301634,Unc
same,T-PSI,NEDD1 Exon 97301480-97301634,0.878
same,ΔPSI,NEDD1 Exon 97301480-97301634,0.008
same,Effect,NEK1 Exon 170508710-170508764,Exc
same,T-PSI,NEK1 Exon 170508710-170508764,0.830
same,ΔPSI,NEK1 Exon 170508710-170508764,−0.152
same,Effect,NEO1 Exon 73567033-73567065,Inc
same,T-PSI,NEO1 Exon 73567033-73567065,0.149
same,ΔPSI,NEO1 Exon 73567033-73567065,0.120
same,Effect,NEXN Exon 78390873-78390914,Exc
same,T-PSI,NEXN Exon 78390873-78390914,0.654
same,ΔPSI,NEXN Exon 78390873-78390914,−0.138
same,Effect,NF2 Exon 30079009-30079053,Inc
same,T-PSI,NF2 Exon 30079009-30079053,0.900
same,ΔPSI,NF2 Exon 30079009-30079053,0.167
same,Effect,NF2 Exon 30079009-30079068,Inc
same,T-PSI,NF2 Exon 30079009-30079068,0.807
same,ΔPSI,NF2 Exon 30079009-30079068,0.244
same,Effect,NFE2L1 Exon 46134394-46134483,Exc
same,T-PSI,NFE2L1 Exon 46134394-46134483,0.327
same,ΔPSI,NFE2L1 Exon 46134394-46134483,−0.156
